pIC50: −log10 of the molar value.
Target: full-length recombinant human FYN A (Homo sapiens (Human), UniProt P06241)
Assay: ADP-Glo Kinase Assay of FYN kinase inhibition
Type: biochemical
Details: secondary screen, re-synthesized and expanded compounds
Summary of the method: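 GST-tagged full-length FYN A (baculovirus, Sf9) at 3 pg preincubated 30 min RT with compound (10-point 3-fold series from 10 μM) in Tris pH 7.5/MgCl2 buffer. 12-mer tyrosine peptide plus 12.5 pmol ATP added, 90 min RT; ADP measured by ADP-Glo luminescence, IC50 from dose-response.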

full-length recombinant human FYN A, sequence (P06241 whole entry): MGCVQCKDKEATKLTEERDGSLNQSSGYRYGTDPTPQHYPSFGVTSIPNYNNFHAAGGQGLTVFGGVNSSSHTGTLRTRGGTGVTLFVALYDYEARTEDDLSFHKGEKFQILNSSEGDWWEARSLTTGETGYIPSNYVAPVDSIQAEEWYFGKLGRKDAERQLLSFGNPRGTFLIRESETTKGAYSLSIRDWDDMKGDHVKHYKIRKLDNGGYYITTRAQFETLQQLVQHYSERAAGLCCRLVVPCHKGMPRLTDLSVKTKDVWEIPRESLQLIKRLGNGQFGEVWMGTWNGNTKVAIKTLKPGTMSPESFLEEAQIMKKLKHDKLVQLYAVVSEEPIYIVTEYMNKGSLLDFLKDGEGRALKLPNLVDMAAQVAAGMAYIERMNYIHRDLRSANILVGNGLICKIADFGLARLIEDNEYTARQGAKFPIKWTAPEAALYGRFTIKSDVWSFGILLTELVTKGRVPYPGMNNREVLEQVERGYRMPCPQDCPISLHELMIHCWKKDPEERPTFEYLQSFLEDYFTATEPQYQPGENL

SMILES | pIC50
COc1cc(-c2cnc3cnc(-c4ccc(C(=O)NCCCN(C)C)cc4)cn23)ccc1O [BF000334019, N-[3-(dimethyl-amino)-propyl]-4-[3-(4-hydroxy-3-methoxy-phenyl)-imidazo[1,2-a]pyrazin-6-yl]benzamide] | 6.19
COc1cc(-c2cnc3cnc(-c4cccc(C(=O)NCCO)c4)cn23)ccc1O [BF000334020, N-(2-hydroxy-ethyl)-3-[3-(4-hydroxy-3-methoxy-phenyl)-imidazo[1,2-a]pyrazin-6-yl]benzamide] | 5.89
COc1cc(-c2cnc3cnc(-c4ccc(C(=O)NCCN(C)C)cc4)cn23)ccc1O [BF000334023, N-[2-(dimethyl-amino)ethyl]-4-[3-(4-hydroxy-3-methoxy-phenyl)-imidazo[1,2-a]pyrazin-6-yl]benzamide] | 6.47
CN(C)CCNC(=O)c1ccc(-c2cn3c(-c4ccc(Oc5ccccc5)cc4)cnc3cn2)cc1 [BF000334031, N-[2-(dimethyl-amino)ethyl]-4-[3-(4-phenoxy-phenyl)-imidazo[1,2-a]pyrazin-6-yl]-benzamide] | 6.65
O=C(NCCO)c1ccc(-c2cn3c(-c4ccc(Oc5ccccc5)cc4)cnc3cn2)cc1 [BF000334032, N-(2-hydroxy-ethyl)-4-[3-(4-phenoxy-phenyl)-imidazo-[1,2-a]-pyrazin-6-yl]benzamide] | 6.33
COc1cc(-c2cc(-c3ccc(N4CCNCC4)cc3)cnc2N)ccc1O [BF000707279, 4-[2-amino-5-(4-piperazin-1-ylphenyl)-3-pyridyl]-2-methoxy-phenol] | 7.22
CN1CCN(c2ccc(-c3cnc(N)c(-c4ccc(O)cc4)c3)cc2)CC1 [BF000710044, 4-[2-amino-5-[4-(4-methyl-piperazin-1-yl)phenyl]-3-pyridyl]-phenol] | 6.28
c1ccc(CNc2nn3c(-c4cccnc4)cnc3s2)cc1 [BF000714845, N-benzyl-5-(3-pyridyl)-imidazo[2,1-b][1,3,4]-thiadiazol-2-amine] | 6.20
CN(C)C(=O)c1cccc(-c2cnc3sc(NCc4ccccc4)nn23)c1 [BF000714847, 3-[2-(benzyl-amino)-imidazo[2,1-b][1,3,4]-thiadiazol-5-yl]-N,N-dimethyl-benzamide] | 5.91
COc1cncc(-c2cnc3sc(NCc4ccccc4)nn23)c1 [BF000714862, N-benzyl-5-(5-methoxy-3-pyridyl)-imidazo[2,1-b][1,3,4]-thiadiazol-2-amine] | 6.66
COc1cncc(-c2cnc3sc(NCC4CCOCC4)nn23)c1 [BF000714923, 5-(5-methoxy-3-pyridyl)-N-(tetra-hydropyran-4-ylmethyl)-imidazo[2,1-b][1,3,4]-thiadiazol-2-amine] | 6.53
COc1cncc(-c2cnc3sc(NCc4cccs4)nn23)c1 [BF000714968, 5-(5-methoxy-3-pyridyl)-N-(2-thienyl-methyl)-imidazo[2,1-b][1,3,4]-thiadiazol-2-amine] | 6.36
COc1cncc(-c2cnc3sc(NCc4ccc5c(c4)OCO5)nn23)c1 [BF000714981, N-(1,3-benzodioxol-5-ylmethyl)-5-(5-methoxy-3-pyridyl)-imidazo[2,1-b][1,3,4]-thiadiazol-2-amine] | 6.54
CN(C)C(=O)c1cccc(-c2cnc3sc(NCC4CCOCC4)nn23)c1 [BF000715802, N,N-dimethyl-3-[2-(tetra-hydropyran-4-ylmethyl-amino)-imidazo[2,1-b][1,3,4]-thiadiazol-5-yl]benzamide] | 5.87
COc1ccc(-c2cnc3sc(NC4CCC(O)CC4)nn23)cc1OC (centres unmarked) [BF000717406, 4-[[5-(3,4-dimethoxy-phenyl)-imidazo[2,1-b][1,3,4]-thiadiazol-2-yl]amino]-cyclohexanol] | 6.36
CN(C)C(=O)c1cccc(-c2cnc3sc(NC4CCC(O)CC4)nn23)c1 (centres unmarked) [BF000717418, 3-[2-[(4-hydroxy-cyclohexyl)-amino]-imidazo[2,1-b][1,3,4]-thiadiazol-5-yl]-N,N-dimethyl-benzamide] | 6.54
COc1cc(-c2cnc3sc(NCC4CCOCC4)nn23)ccc1O [BF000717555, 2-methoxy-4-[2-(tetrahydro-pyran-4-ylmethyl-amino)-imidazo[2,1-b][1,3,4]-thiadiazol-5-yl]phenol] | 6.15
OCCCNc1ccc2ncc(-c3ccncc3)n2n1 [BF000722253, 3-[[3-(4-pyridyl)-imidazo[1,2-b]pyridazin-6-yl]amino]-propan-1-ol] | 6.27
COc1cc(-c2ccc3ncc(-c4cccc(NC(C)=O)c4)n3n2)ccc1O [BF000726183, N-(3-[6-(4-hydroxy-3-methoxy-phenyl)-imidazo[1,2-b]pyridazin-3-yl]phenyl]-acatamide] | 6.78
OCc1cccc(-c2cnc3ccc(-c4cccc(O)c4)nn23)c1 [BF000726195] | 5.93
COc1ccc(-c2ccc3ncc(-c4cccc(NC(C)=O)c4)n3n2)cc1OC [BF000726345, N-[3-[6-(3,4-dimethoxy-phenyl)-imidazo[1,2-a]pyridazin-3-yl]phenyl]-acatamide] | 6.50
CC(=O)Nc1cccc(-c2ccc3ncc(-c4cccc(NC(C)=O)c4)n3n2)c1 [BF000726346, N-[3-[3-(3-acetamido-phenyl)-imidazo[1,2-b]pyridazin-6-yl]phenyl]-acetamide] | 6.19

SMILES | pIC50
Oc1cccc(-c2cnc3ccc(-c4ccncc4)nn23)c1 [BF000726352, 3-[6-(4-pyridyl)-imidazo[1,2-b]pyridazin-3-yl]phenol] | 6.47
OCc1cccc(-c2cnc3ccc(-c4ccncc4)nn23)c1 [BF000726364, [3-[6-(4-pyridyl)-imidpzo[1,2-b]pyridazin-3-yl]phenyl]-methanol] | 6.01
COc1ccc(-c2ccc3ncc(-c4cccc(CO)c4)n3n2)cc1OC [BF000726366, [3-[6-(3,4-dimethoxy-phenyl)-imidazo[1,2-b]pyridazin-3-yl]phenyl]-methanol] | 6.05
CC(=O)Nc1cccc(-c2ccc3ncc(-c4cccc(CO)c4)n3n2)c1 [BF000726367, N-[3-[3-[3-(hydroxy-methyl)phenyl]-imidazo[1,2-b]pyridazin-6-yl]phenyl]-acetamide] | 5.82
COc1cc(-c2cnc3ccc(-c4ccc(OC)c(OC)c4)nn23)ccc1O [BF000726453, 4-[6-(3,4-dimethoxy-phenyl)-imidazo[l,2-b]pyridazin-3-yl]-2-methoxy-phenol] | 7.40
COc1cc(-c2cnc3ccc(-c4cccc(NC(C)=O)c4)nn23)ccc1O [BF000726454, N-[3-[3-(4-hydroxy-3-methoxy-phenyl)-imidazo[1,2-b]pyridazin-6-yl]phenyl]-acetamide] | 6.98
CC(=O)c1cccc(-c2cnc3ccc(-c4cccc(CO)c4)nn23)c1 [BF000726471, 1-[3-[6-[3-(hydroxy-methyl)-phenyl]-imidazo[1,2-b]pyridazin-3-yl]phenyl]-ethanone] | 6.54
COc1cc(-c2cnc3ccc(-c4ccc(CO)cc4)nn23)ccc1O [BF000726486, 4-[6-[4-(hydroxy-methyl)-phenyl]-imidazo[1,2-b]pyridazin-3-yl]-2-methoxy-phenol] | 7.21
COc1cc(-c2cnc3ccc(-c4cccc(CO)c4)nn23)ccc1O [BF000726487, 4-[6-[3-(hydroxy-methyl)-phenyl]-imidazo[1,2-b]pyridazin-3-yl]-2-methoxy-phenol] | 7.20
COc1cncc(-c2cnc3sc(NC4CCC(O)CC4)nn23)c1 (centres unmarked) [BF000802724, 4-[[5-(5-methoxy-3-pyridyl)-imidazo[2,1-b][1,3,4]-thiadiazol-2-yl]amino]-cyclohexanol] | 6.52
CN(C)CCCNC(=O)c1ccc(-c2cn3c(-c4ccc(Oc5ccccc5)cc4)cnc3cn2)cc1 [BF000816927, N-[3-(dimethyl-amino)-propyl]-4-[3-(4-phenoxy-phenyl)imidazo[1,2-a]pyrazin-6-yl]benzamide] | 6.61
CC(C)[C@@H](CO)Nc1ccc2ncc(-c3ccncc3)n2n1 [BF000817097, (2S)-3-methyl-2-[[3-(4-pyridyl)-imidazo[1,2-b]pyridazin-6-yl]amino]-butan-1-ol] | 6.20
CC(=O)c1cccc(-c2cnc3ccc(NCCCO)nn23)c1 [BF000817098, 1-[3-[6-(3-hydroxy-propyl-amino)-imdazo[1,2-b]pyridazin-3-yl]phenyl]-ethanone] | 6.19
c1cc(-c2cnc3ccc(NC4CCOCC4)nn23)ccn1 [BF000817099, 3-(4-pyridyl)-N-tetrahydro-pyran-4-yl-imidazo[1,2-b]pyridazin-6-amine] | 6.57
CC(=O)Nc1cccc(-c2cnc3ccc(-c4ccncc4)nn23)c1 [BF000817142, N-[3-[6-(4-pyridyl)-imidazo[1,2-b]pyridazin-3-yl]phenyl]-acetamide] | 6.13
COc1cc(-c2cnc3ccc(-c4ccncc4)nn23)ccc1O [BF000817169, 2-methoxy-4-[6-(4-pyridyl)-imidazo[1,2-b]pyridazin-3-yl]phenol] | 7.10
c1ccc(CNc2ccc3ncc(-c4ccncc4)n3n2)nc1 [BF000817170, 3-(4-pyridyl)-N-(2-pyridyl-methyl)-imidazo[1,2-b]pyridazin-6-amine] | 6.77
COc1cc(-c2cnc(N)c(-c3cc(OC)c(OC)c(OC)c3)c2)cc(OC)c1OC [BF000817175, 3,5-bis(3,4,5-trimethoxy-phenyl)-pyridin-2-amine] | 7.07
COc1cc(-c2cc(-c3ccc(N4CCN(C(C)C)CC4)cc3)cnc2N)ccc1O [BF000817185] | 7.11
COc1cc(-c2ccc3ncc(-c4ccc(O)c(OC)c4)n3n2)ccc1O [BF000817186, 4-[3-(4-hydroxy-3-methoxy-phenyl)-imidazo[1,2-b]pyridazin-6-yl]-2-methoxy-phenol] | 7.53
OCc1cccc(-c2ccc3ncc(-c4cccc(CO)c4)n3n2)c1 [BF000817188, [3-[3-[3-(hydroxy-methyl)-phenyl]-imidazo[1,2-b]pyridazin-6-yl]phenyl]-methanol] | 6.08
COc1ccc(-c2cnc3sc(NCC4CCOCC4)nn23)cc1OC [BF000817208, 5-(3,4-dimethoxy-phenyl)-N-(tetra-hydropyran-4-ylmethyl)-imidazo[2,1-b][1,3,4]-thiadiazol-2-amine] | 5.99
